According to patent publication US8481732B2 (Incyte Corporation, priority 2009, dated 2013):

The molecules below were run against T1, histamine H4 receptor (Homo sapiens, UniProt Q9H3N8) (assay: H4 Membrane Binding Assay (3H-Histamine displacement)). Conditions: membranes of recombinant HEK293SFM cells, 10 nM 3H-Histamine, 1.5 hr at room temperature.
T1 construct: expressed in transfected cells; host or cells: HEK293SFM cells (membrane preparation)
Experimental: Recombinant HEK293SFM cells expressing human H1, H2, H3, H4 or mouse H4 were harvested (Packard Filtermate Harvester) in ice-cold Tris-HCl, (50 mM, pH 7.5, Sigma) with protease inhibitors (Roche) and homogenized with a Polytron homogenizer. The homogenate was centrifuged for 5 minutes at 1000 g to remove nuclei and unbroken cells. The supernatant was centrifuged at 50000 g for 30 minutes, and the resulting pellet was re-suspended in ice-cold Tris-HCl (50 mM, pH 7.5). […] Nonspecific binding was determined by inclusion of 1000× unlabeled ligands. The bound radioactivity was separated by filtration through polyethyleneimine-treated GF/B filters (Perkin Elmer). The filters were washed eight times with ice-cold Tris-HCl (50 mM, pH 7.5), and radioactivity retained on the filters was measured by liquid scintillation counting. The binding data were evaluated with Prism.

Compound	IC50
CN1CCN(c2cc(-c3ccc4c(c3)CN(C(=O)C3CCC3)CC4)nc(N)n2)CC1 [Example 3, 4-[2-(Cyclobutylcarbonyl)-1,2,3,4-tetrahydroisoquinolin-7-yl]-6-(4-methylpiperazin-1-yl)pyrimidin-2-amine]	0.17 µM
Cc1ccnc(Oc2cccc(CNC(=O)c3ccc4c(N5CCN(C)CC5)nc(N)nc4c3)c2)c1 [Example 182, 2-Amino-4-(4-methylpiperazin-1-yl)-N-{3-[(4-methylpyridin-2-yl)oxy]benzyl}quinazoline-7-carboxamide]	0.056 µM
CO[C@H]1CCCC[C@H]1NC(=O)N1CCc2ccc(-c3cc(N4CCN(C)CC4)nc(N)n3)cc2C1 (relative stereo) [Example 55, 7-[2-Amino-6-(4-methylpiperazin-1-yl)pyrimidin-4-yl]-N-(cis-2-methoxycyclohexyl)-3,4-dihydroisoquinoline-2(1H)-carboxamide]	0.12 µM
C[C@@H](NC(=O)c1ccc2c(N3CCN(C)CC3)nc(N)nc2c1)c1ccc2ccccc2c1 [Example 21, (R)-2-Amino-4-(4-methylpiperazin-1-yl)-N-[1-(naphthalen-2-yl)ethyl]quinazoline-7-carboxamide]	0.105 µM
C[C@H](NC(=O)c1ccc2c(N3CCN(C)CC3)nc(N)nc2c1)c1ccc2ccccc2c1 [Example 22, (S)-2-Amino-4-(4-methylpiperazin-1-yl)-N-(1-(naphthalen-2-yl)ethyl)quinazoline-7-carboxamide]	0.128 µM
CN1CCN(c2cc(-c3ccc4c(c3)CN(C(=O)Nc3nccs3)CC4)nc(N)n2)CC1 [Example 88, 7-[2-Amino-6-(4-methylpiperazin-1-yl)pyrimidin-4-yl]-N-1,3-thiazol-2-yl-3,4-dihydroisoquinoline-2(1H)-carboxamide]	0.135 µM
CN1CCN(c2cc(-c3ccc4c(c3)CN(C(=O)Nc3ccc(-n5cccn5)cc3)CC4)nc(N)n2)CC1 [Example 93, 7-[2-Amino-6-(4-methylpiperazin-1-yl)pyrimidin-4-yl]-N-[4-(1H-pyrazol-1-yl)phenyl]-3,4-dihydroisoquinoline-2(1H)-carboxamide]	0.043 µM
CN1CCN(c2nc(N)nc3cc(C(=O)NCCc4ccccc4)ccc23)CC1 [Example 37, 2-Amino-4-(4-methylpiperazin-1-yl)-N-(2-phenylethyl)quinazoline-7-carboxamide]	0.129 µM
CN1CCN(c2nc(N)nc3cc(C(=O)NCCCc4ccccc4)ccc23)CC1 [Example 38, 2-Amino-4-(4-methylpiperazin-1-yl)-N-(3-phenylpropyl)quinazoline-7-carboxamide]	0.106 µM
CN1CCN(c2cc(-c3ccc4c(c3)CN(C(=O)CC3CCN(C(=O)C5CC5)CC3)CC4)nc(N)n2)CC1 [Example 72, 4-(2-{[1-(Cyclopropylcarbonyl)piperidin-4-yl]acetyl}-1,2,3,4-tetrahydroisoquinolin-7-yl)-6-(4-methylpiperazin-1-yl)pyrimidin-2-amine]	0.419 µM
COC(=O)c1ccc(Oc2cccc(CNC(=O)c3ccc4c(N5CCN(C)CC5)nc(N)nc4c3)c2)cc1 [Example 179, Methyl 4-{3-[({[2-amino-4-(4-methylpiperazin-1-yl)quinazolin-7-yl]carbonyl}amino)methyl]phenoxy}benzoate]	0.046 µM
CN1CCN(c2cc(-c3ccc4c(c3)CN(c3ccc(C#N)cn3)CC4)nc(N)n2)CC1 [Example 16, 6-{7-[2-Amino-6-(4-methylpiperazin-1-yl)pyrimidin-4-yl]-3,4-dihydroisoquinolin-2(1H)-yl}nicotinonitrile]	0.048 µM
CC(C)OC(=O)N1CCc2ccc(-c3cc(N4CCN(C)CC4)nc(N)n3)cc2C1 [Example 11, Isopropyl 7-[2-amino-6-(4-methylpiperazin-1-yl)pyrimidin-4-yl]-3,4-dihydroisoquinoline-2(1H)-carboxylate]	0.043 µM
CC(NC(=O)c1ccc2c(N3CCN(C)CC3)nc(N)nc2c1)c1ccc(Br)cc1 (stereo not shown) [Example 31, 2-Amino-N-[1-(4-bromophenyl)ethyl]-4-(4-methylpiperazin-1-yl)quinazoline-7-carboxamide]	0.355 µM
CN1CCN(c2cc(-c3ccc4c(c3)CN(C(=O)Nc3ccc(C#N)nc3)CC4)nc(N)n2)CC1 [Example 44, 7-[2-Amino-6-(4-methylpiperazin-1-yl)pyrimidin-4-yl]-N-(6-cyanopyridin-3-yl)-3,4-dihydroisoquinoline-2(1H)-carboxamide]	0.118 µM
CCOC(=O)N1CCC(NC(=O)N2CCc3ccc(-c4cc(N5CCN(C)CC5)nc(N)n4)cc3C2)CC1 [Example 52, Ethyl 4-({[7-[2-amino-6-(4-methylpiperazin-1-yl)pyrimidin-4-yl]-3,4-dihydroisoquinolin-2(1H)-yl]carbonyl}amino)piperidine-1-carboxylate]	0.13 µM
CN1CCN(c2cc(-c3ccc4c(c3)CN(C(=O)N(C)C3CCCCC3)CC4)nc(N)n2)CC1 [Example 81, 7-[2-Amino-6-(4-methylpiperazin-1-yl)pyrimidin-4-yl]-N-cyclohexyl-N-methyl-3,4-dihydroisoquinoline-2(1H)-carboxamide]	0.163 µM
CN1CCN(c2nc(N)nc3cc(C(=O)NCc4ccc(-c5ccccc5)cc4)ccc23)CC1 [Example 33]	0.19 µM
CC(C)Cc1ccc(C(C)NC(=O)c2ccc3c(N4CCN(C)CC4)nc(N)nc3c2)cc1 (stereo not shown) [Example 28, 2-Amino-N-[1-(4-isobutylphenyl)ethyl]-4-(4-methylpiperazin-1-yl)quinazoline-7-carboxamide]	0.171 µM

Now those with a lower IC50, led by results:

IC50	Compound
0.039 µM	CN1CCN(c2cc(-c3ccc4c(c3)CN(c3ccc(C#N)c(F)c3)CC4)nc(N)n2)CC1 [Example 15, 4-{7-[2-Amino-6-(4-methylpiperazin-1-yl)pyrimidin-4-yl]-3,4-dihydroisoquinolin-2(1H)-yl}-2-fluorobenzonitrile]
0.038 µM	CCOC(=O)N1CCC(OC(=O)N2CCc3ccc(-c4cc(N5CCN(C)CC5)nc(N)n4)cc3C2)CC1 [Example 116, 1-(Ethoxycarbonyl)piperidin-4-yl 7-[2-amino-6-(4-methylpiperazin-1-yl)pyrimidin-4-yl]-3,4-dihydroisoquinoline-2(1H)-carboxylate]
0.036 µM	CN1CCN(c2nc(N)nc3cc(C(=O)N4CCc5c(cccc5OCc5cccc(C#N)c5)C4)ccc23)CC1 [Example 207, 3((2-(2-Amino-4-(4-methylpiperazin-1-yl)quinazoline-7-carbonyl)-1,2,3,4-tetrahydroisoquinolin-5-yloxy)methyl)benzonitrile]
0.033 µM	CN1CCN(c2cc(-c3ccc4c(c3)CN(C(=O)OC3CCN(C(=O)OC5CCCC5)CC3)CC4)nc(N)n2)CC1 [Example 69, 1-[(Cyclopentyloxy)carbonyl]piperidin-4-yl 7-[2-amino-6-(4-methylpiperazin-1-yl)pyrimidin-4-yl]-3,4-dihydroisoquinoline-2(1H)-carboxylate]
0.027 µM	CN1CCN(c2cc(-c3ccc4c(c3)CN(C(=O)NC3(C)CCCCC3)CC4)nc(N)n2)CC1 [Example 47, 7-[2-Amino-6-(4-methylpiperazin-1-yl)pyrimidin-4-yl]-N-(1-methylcyclohexyl)-3,4-dihydroisoquinoline-2(1H)-carboxamide]
0.026 µM	CN1CCN(c2nc(N)nc3cc(C(=O)NC(Cc4cccc(Oc5ccc(Cl)cc5C#N)c4)C(=O)N(C)C)ccc23)CC1 (stereo not shown) [Example 172, 2-Amino-N-[1-[3-(4-chloro-2-cyanophenoxy)benzyl]-2-(dimethylamino)-2-oxoethyl]-4-(4-methylpiperazin-1-yl)quinazoline-7-carboxamide]
0.0234 µM	CN1CCN(c2cc(-c3ccc4c(c3)CN(C(=O)Nc3ccccc3)CC4)nc(N)n2)CC1 [Example 12, 7-[2-Amino-6-(4-methylpiperazin-1-yl)pyrimidin-4-yl]-N-phenyl-3,4-dihydroisoquinoline-2(1H)-carboxamide]
0.019 µM	CN1CCN(c2cc(-c3ccc4c(c3)CN(C(=O)NC35CC6CC(CC(C6)C3)C5)CC4)nc(N)n2)CC1 [Example 59, N-1-Adamantyl-7-[2-amino-6-(4-methylpiperazin-1-yl)pyrimidin-4-yl]-3,4-dihydroisoquinoline-2(1H)-carboxamide]
0.018 µM	CN1CCN(c2nc(N)nc3cc(C(=O)NC(Cc4cccc(OCc5cccc(C#N)c5)c4)C(=O)N(C)C)ccc23)CC1 (stereo not shown) [Example 175, 2-Amino-N-[1-{3-[(3-cyanobenzyl)oxy]benzyl}-2-(dimethylamino)-2-oxoethyl]-4-(4-methylpiperazin-1-yl)quinazoline-7-carboxamide]
0.017 µM	COc1cccc(COc2ccc3c(c2)C(NC(=O)c2ccc4c(N5CCN(C)CC5)nc(N)nc4c2)CCC3)c1 (stereo not shown) [Example 203, 2-Amino-N-(7-(3-methoxybenzyloxy)-1,2,3,4-tetrahydronaphthalen-1-yl)-4-(4-methylpiperazin-1-yl)quinazoline-7-carboxamide]
0.0095 µM	CCC(C)CC(=O)N1CCc2ccc(-c3cc(N4CCN(C)CC4)nc(N)n3)cc2C1 (stereo not shown) [Example 111, 4-[2-(3-Methylpentanoyl)-1,2,3,4-tetrahydroisoquinolin-7-yl]-6-(4-methylpiperazin-1-yl)pyrimidin-2-amine]
0.0044 µM	CC(Oc1cccc(CNC(=O)c2ccc3c(N4CCN(C)CC4)nc(N)nc3c2)c1)c1cccc(C(F)(F)F)c1 (stereo not shown) [Example 196, 2-Amino-4-(4-methylpiperazin-1-yl)-N-(3-{1-[3-(trifluoromethyl)phenyl]ethoxy}benzyl)quinazoline-7-carboxamide]
